Columns and labels:
blood glucose levels [1] = assay: Hypoglycemic effect of oral insulin-loaded NPs in normal rats; type: in vivo, Sprague Dawley rats; conditions: subcutaneous injection
Description: Sprague Dawley rats (n=6 per group) were fasted overnight before experiments, but allowed free access to water. The animals were administered Tf-coated NPs and BSA-coated NPs (PEA75) in PBS (1.5 mL per 100 g of body weight), at an insulin dose of 50 U/kg, by oral gavage. Tf-coated NPs were tested with four different formulations, including PEA50 NPs, PEA75 NPs, PLGA-PEA50 NPs, and PLGA-PEA75 NPs. As controls, saline and free insulin (50 U/kg) were administered by oral gavage. One group of animals was administered with insulin solution (2 U/kg) by subcutaneous (SC) injection, which was used for the calculation of relative pharmacological availability (PA %). The blood glucose levels were measured as described above, and the pharmacological availability for different formulations was calculated relative to the SC route. […] All four tested Tf-coated NPs elicited a significant hypoglycemic response, reducing glucose during the first 1-6 hours after administration as shown in Table 3.

blood glucose levels [2] = assay: Hypoglycemic effect of oral insulin-loaded NPs in diabetic mice; type: in vivo, BALB/c mice; conditions: subcutaneous injection
Description: For the evaluation of in vivo efficacy in diabetic animals, insulin-dependent (type 1) diabetes was induced in male BALB/c mice (Charles River Laboratories) by a single injection of streptozotocin solution ([…]) as previously described (see, e.g., 7. S. Arora, S. K. Ojha, D. Vohora, Global J. Pharmacol. 2009, 3, 81-84). Animals were considered to be diabetic if they had fasting glycemia higher than 16.0 mM one week after the injection. The diabetic mice (n=6 per group) were fasted overnight and then administered different samples by gavage, including saline, free insulin, Tf-coated NPs (PEA75), and BSA-coated NPs (PEA75) (insulin dose of 50 U/kg, 1.5 mL per 100 g of body weight). One group of animals was administered an insulin solution (5 U/kg) by subcutaneous (SC) injection. The blood glucose levels were measured as described above, and the pharmacological availability for different formulations was calculated relative to the SC route.

blood glucose levels [3] = assay: Bioactivity of insulin released from NPs, subcutaneous injection; type: in vivo, Sprague Dawley rats; conditions: 2 U/kg subcutaneous, insulin released in PBS 2 hours at 37° C.
Description: To study the bioactivity of insulin after the preparation and drug release process, NPs were allowed to release insulin in PBS for 2 hours at 37° C. Then the NPs were isolated from the released insulin by ultra-centrifugation. Sprague Dawley rats (Dashuo Laboratory Animal Center) (n=4 per group) were fasted overnight, and then administered the released insulin (2 U/kg) or original free insulin (2 U/kg) and saline, by subcutaneous injection. Blood glucose levels were measured with the AlphaTRAK blood glucose monitoring system (Abbott).

Substance	AAC (area above the serum glucose concentration curve) (blood glucose levels [1]; 2 U/kg)	Tmax (blood glucose levels [1]; 2 U/kg)	PA (relative pharmacological availability) (blood glucose levels [1]; 2 U/kg (reference route))	AAC (area above the serum glucose concentration curve) (blood glucose levels [2]; 5 U/kg)	Tmax (blood glucose levels [2]; 5 U/kg)	PA (relative pharmacological availability) (blood glucose levels [2]; 5 U/kg (reference route))	Hypoglycemic response of released insulin (blood glucose levels [3])
insulin [Free Insulin]	92.8 %*h	30 min	100.0%	227.5 %*h	60 min	100.0%	
released insulin: insulin released from the NPs in PBS for 2 hours at 37° C. and separated by ultra-centrifugation							hypoglycemic response analogous to an equivalent dose of free insulin solution
